US9708279B2, “2-acylaminothiazoles for the treatment of cancer” (UNIVERSITA′ DEGLI STUDI DI MILANO-BICOCCA, priority 2013, dated 2017)
Where two headings read alike, the source gives them in different places.

Key:
[1] = target: recombinant wild-type ALK kinase (rALK) (Homo sapiens (Human), UniProt Q9UM73); assay: ELISA-based in vitro kinase assay, wild-type ALK; assay type: biochemical; details: 0.3 mM ATP, read-out: ALK WT IC50
Description: ELISA-Based in vitro Kinase Assay
GST-tagged recombinant wild-type or L1196M mutated ALK kinase (rALK) was expressed in Sf9 insect cells using the pBacPAK baculovirus vector system (Clontech) and purified using Glutathione Sepharose 4B affinity beads (GE Healthcare). Recombinant 3C protease was used to remove the GST tag. Purified ALK was used to screen inhibitors in the ELISA-based kinase assay, as follows: Nunc-Immuno 96-well plates were incubated overnight at 30° C. with coating solution containing 2 μg of a specific ALK peptide substrate ([sequence]) in PBS. Wells were then washed with 200 μL of wash buffer (PBS-Tween 0.05%) and incubated with 4% BSA in PBS for at least 2 h at 30° C. The kinase reaction was performed in the presence of 50 mM Tris pH 7.5, 5 mM MnCl2, 5 mM MgCl2, 0.3 mM ATP and purified rALK in a total volume of 100 μL/well at 30° C. for 15 min. For inhibitor testing the reaction mix was preincubated with inhibitor or vehicle for 10 min at room temperature before transferring to the ELISA plate. After the reaction, the wells were washed 5 times with 200 uL of wash buffer. Phosphorylated peptide was detected using 100 μL/well of a mouse monoclonal anti-phosphotyrosine antibody (clone 4G10 UpstateBiotech Ltd) diluted 1:2000 in PBS+4% BSA. After 30 min incubation at room temperature the antibody was removed and wells were washed as described above. 100 μL of a secondary antibody (anti-mouse IgG, Horseradish Peroxidase linked whole antibody, Amersham Pharmacia Biotech) diluted 1:1000 in PBS+4% BSA was added to each well and the plate was incubated again for 30 min at room temperature before washing as above. The plate was developed using 100 μL/well TMB Substrate Solution (Pierce) and the reaction was stopped by adding an equal volume of 1M H2SO4. Finally, the absorbance was read at 450 nm using an ELISA plate reader (Bio-Rad).

[2] = tested on: parental untransformed BaF3 cells; assay: Tritiated thymidine uptake cell proliferation assay, parental BaF3; assay type: cell-based; details: Mus musculus
Description: (§1) Tritiated Thymidine Uptake Cell Proliferation Assay
The parent untransformed BaF3 cells and ALK-negative cells are used as controls. Cells are seeded in U-bottomed 96-well plates at 10 000 cells/well in a volume of 100 μL in supplemented medium. In the case of the parent untransformed BaF3 cells, the medium is supplemented with IL-3. Serial dilutions of inhibitors are added to the appropriate wells and volumes adjusted to 200 μL. Controls were treated with the equivalent volume of vehicle, DMSO, alone. Plates are incubated at 37° C. for 72 h. ^3[H]-thymidine (1 μCiCi/well) is added for the last 8 h of incubation. Cells are harvested on to paper filters and ^3[H]-thymidine incorporation is measured using a β scintillation counter (1430 MicroBeta, Wallac, Turku, Finland). The 50% inhibitory concentration (IC50) is defined as the concentration of inhibitor, expressed in micromolar, that give a 50% decrease in ^3[H]-thymidine uptake compared with controls.

[3] = tested on: BaF3 cells transformed with the oncogenic fusion protein NPM/ALK; assay: Tritiated thymidine uptake cell proliferation assay, BaF3 NPM/ALK; assay type: cell-based; details: for IC50: BaF3 NPM/ALK cells, 72 h, 3H-thymidine uptake, read-out: NPM/ALK WT IC50; for Selectivity Index (WT): parental BaF3 versus BaF3 NPM/ALK WT
Description: as §1
The parent untransformed BaF3 cells and ALK-negative cells are used as controls. Cells are seeded in U-bottomed 96-well plates at 10 000 cells/well in a volume of 100 μL in supplemented medium. In the case of the parent untransformed BaF3 cells, the medium is supplemented with IL-3. Serial dilutions of inhibitors are added to the appropriate wells and volumes adjusted to 200 μL. Controls were treated with the equivalent volume of vehicle, DMSO, alone. Plates are incubated at 37° C. for 72 h. ^3[H]-thymidine (1 μCiCi/well) is added for the last 8 h of incubation.

[4] = parental BaF3 cells (IL-3), 72 h, 3H-thymidine uptake, read-out: Parental IC50

Chain of recombinant wild-type ALK kinase (rALK) (Q9UM73 19-1620): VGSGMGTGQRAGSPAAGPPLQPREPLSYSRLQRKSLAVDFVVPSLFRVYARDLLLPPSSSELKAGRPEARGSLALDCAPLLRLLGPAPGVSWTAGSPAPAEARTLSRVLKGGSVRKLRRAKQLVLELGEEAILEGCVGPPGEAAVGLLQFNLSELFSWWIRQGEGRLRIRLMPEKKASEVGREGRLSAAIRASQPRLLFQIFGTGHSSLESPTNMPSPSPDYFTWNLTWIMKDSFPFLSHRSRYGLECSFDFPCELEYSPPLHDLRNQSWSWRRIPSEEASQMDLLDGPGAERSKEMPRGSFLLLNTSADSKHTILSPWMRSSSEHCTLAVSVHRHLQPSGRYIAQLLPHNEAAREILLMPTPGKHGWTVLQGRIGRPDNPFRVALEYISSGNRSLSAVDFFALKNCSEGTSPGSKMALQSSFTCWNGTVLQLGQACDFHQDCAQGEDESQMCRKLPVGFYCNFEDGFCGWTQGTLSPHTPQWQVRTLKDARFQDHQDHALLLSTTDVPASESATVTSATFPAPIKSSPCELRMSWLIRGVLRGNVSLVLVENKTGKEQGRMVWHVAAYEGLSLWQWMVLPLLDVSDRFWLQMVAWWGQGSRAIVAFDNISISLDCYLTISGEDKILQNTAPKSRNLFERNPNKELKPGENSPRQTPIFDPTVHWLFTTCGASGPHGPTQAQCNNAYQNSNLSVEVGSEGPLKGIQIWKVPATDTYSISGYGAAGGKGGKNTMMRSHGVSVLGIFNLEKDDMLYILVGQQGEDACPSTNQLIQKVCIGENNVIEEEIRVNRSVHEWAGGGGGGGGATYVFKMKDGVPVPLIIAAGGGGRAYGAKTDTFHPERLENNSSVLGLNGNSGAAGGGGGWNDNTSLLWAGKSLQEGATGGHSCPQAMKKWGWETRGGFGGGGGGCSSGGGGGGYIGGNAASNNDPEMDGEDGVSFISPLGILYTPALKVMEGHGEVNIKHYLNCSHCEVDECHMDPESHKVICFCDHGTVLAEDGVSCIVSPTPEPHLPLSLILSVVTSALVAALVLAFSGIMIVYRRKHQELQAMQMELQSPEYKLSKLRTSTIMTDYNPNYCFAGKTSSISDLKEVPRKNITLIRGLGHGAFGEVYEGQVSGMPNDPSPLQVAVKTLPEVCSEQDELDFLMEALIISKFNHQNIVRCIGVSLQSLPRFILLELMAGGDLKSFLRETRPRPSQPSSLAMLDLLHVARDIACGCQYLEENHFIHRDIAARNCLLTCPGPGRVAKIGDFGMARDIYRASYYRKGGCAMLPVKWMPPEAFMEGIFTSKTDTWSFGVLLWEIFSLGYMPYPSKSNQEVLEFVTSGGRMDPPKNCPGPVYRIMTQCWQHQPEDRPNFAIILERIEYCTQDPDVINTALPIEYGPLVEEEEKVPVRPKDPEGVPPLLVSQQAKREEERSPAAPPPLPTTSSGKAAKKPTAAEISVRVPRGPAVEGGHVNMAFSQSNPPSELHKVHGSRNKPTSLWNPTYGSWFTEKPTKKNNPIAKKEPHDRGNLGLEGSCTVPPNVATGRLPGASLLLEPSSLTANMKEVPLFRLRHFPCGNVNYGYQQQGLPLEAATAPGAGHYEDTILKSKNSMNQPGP

Row | Compound | IC50 [1] [µM] | IC50 [2, 4] [µM] | IC50 [3] [µM] | Selectivity Index (WT) [3] | IC50 ([2]; BaF3, read-out: Parental IC50) [µM]
1 | CC(C)[Si](C#Cc1cccc(-c2csc(NC(=O)c3ccc(CNCCN(C)C)cc3)n2)c1)(C(C)C)C(C)C [Example 44, 4-(((2-(dimethylamino)ethyl)amino)methyl)-N-(4-(3-((triisopropylsilyl)ethynyl)phenyl)thiazol-2-yl)benzamide] | > 100 | 7.8 | 5.1 | – | –
2 | COc1ccc(C#Cc2cc(-c3csc(NC(=O)c4ccc(CN5CCN(C)CC5)cc4)n3)ccc2C)cc1 [Example 6, N-(4-(3-((4-methoxyphenyl)ethynyl)-4-methylphenyl)thiazol-2-yl)-4-((4-methylpiperazin-1-yl)methyl)benzamide] | > 100 | 6.6 | 2.1 | 3 | –
3 | Cc1ccc(-c2csc(NC(=O)c3ccc(CN4CCN(C)CC4)cc3)n2)cc1C#Cc1ccc(F)cc1 [Example 9, N-(4-(3-((4-fluorophenyl)ethynyl)-4-methylphenyl)thiazol-2-yl)-4-((4-methylpiperazin-1-yl)methyl)benzamide] | > 100 | 4 | 2.3 | 2 | –
4 | O=C(Nc1nc(-c2cccc(C#Cc3cc(C(F)(F)F)cc(C(F)(F)F)c3)c2)cs1)c1ccc(CN2CCOCC2)cc1 [Example 39, N-(4-(3-((3,5-bis(trifluoromethyl)phenyl)ethynyl)phenyl)thiazol-2-yl)-4-(morpholinomethyl)benzamide] | > 100 | 33 | 9 | 4 | –
5 | CN1CCN(C(=O)c2ccc(-c3ccc(C(=O)Nc4nc(-c5cccc(C#Cc6ccccc6OC(F)(F)F)c5)cs4)o3)cc2)CC1 [Example 43, 5-(4-(4-methylpiperazine-1-carbonyl)phenyl)-N-(4-(3-((2-(trifluoromethoxy)phenyl)ethynyl)phenyl)thiazol-2-yl)furan-2-carboxamide] | > 100 | 4.5 | 4.9 | 1 | –
6 | CC(C)[Si](C#Cc1cccc(-c2csc(NC(=O)c3ccc(Cn4ccnc4)cc3)n2)c1)(C(C)C)C(C)C [Example 46, 4-((1H-imidazol-1-yl)methyl)-N-(4-(3-((triisopropylsilyl)ethynyl)phenyl)thiazol-2-yl)benzamide] | – | – | – | – | 11
7 | CN1CCN(Cc2ccc(C(=O)Nc3nc(-c4ccc(C#Cc5ccccc5C(F)(F)F)c(C#Cc5ccccc5C(F)(F)F)c4)cs3)cc2)CC1 [Example 13, N-(4-(3,4-bis((2-(trifluoromethyl)phenyl)ethynyl)phenyl)thiazol-2-yl)-4-((4-methylpiperazin-1-yl)methyl)benzamide] | – | – | – | – | 3.1
8 | CN1CCN(Cc2ccc(C(=O)Nc3nc(-c4cccc(C#Cc5ccccc5OC(F)(F)F)c4)cs3)cc2)CC1 [Example 42, 4-((4-methylpiperazin-1-yl)methyl)-N-(4-(3-((2-(trifluoromethoxy)phenyl)ethynyl)phenyl)thiazol-2-yl)benzamide] | – | – | – | – | 2.6
9 | CN1CCN(Cc2ccc(C(=O)Nc3nc(-c4cccc(C#Cc5cc(C(F)(F)F)cc(C(F)(F)F)c5)c4)cs3)cc2)CC1 [Example 33, N-(4-(3-((3,5-bis(trifluoromethyl)phenyl)ethynyl)phenyl)thiazol-2-yl)-4-((4-methylpiperazin-1-yl)methyl)benzamide] | – | – | – | – | 7.1
10 | CN1CCN(Cc2ccc(C(=O)Nc3nc(-c4ccc(C#Cc5cc(C(F)(F)F)cc(C(F)(F)F)c5)cc4)cs3)cc2)CC1 [Example 36, N-(4-(4-((3,5-bis(trifluoromethyl)phenyl)ethynyl)phenyl)thiazol-2-yl)-4-((4-methylpiperazin-1-yl)methyl)benzamide] | – | – | – | – | 6.9
11 | Cc1ccc(-c2csc(NC(=O)c3ccc(CN4CCN(C)CC4)cc3)n2)cc1C#C[Si](C(C)C)(C(C)C)C(C)C [Example 14, N-(4-(4-methyl-3-((triisopropylsilyl)ethynyl)phenyl)thiazol-2-yl)-4-((4-methylpiperazin-1-yl)methyl)benzamide] | – | – | – | – | 7.8
12 | CC(C)(C)[Si](C)(C)C#Cc1cccc(-c2csc(NC(=O)c3ccc(CN4CCOCC4)cc3)n2)c1 [Example 40, N-(4-(3-((tert-butyldimethylsilyl)ethynyl)phenyl)thiazol-2-yl)-4-(morpholinomethyl)benzamide] | – | – | – | – | 18
13 | CN1CCN(Cc2ccc(C(=O)Nc3nc(-c4cccc(C#CCO[Si](C)(C)C(C)(C)C)c4)cs3)cc2)CC1 [Example 23, N-(4-(3-(3-((tert-butyldimethylsilyl)oxy)prop-1-yn-1-yl)phenyl)thiazol-2-yl)-4-((4-methylpiperazin-1-yl)methyl)benzamide] | – | – | – | – | 5.9
14 | Cc1ccc(C#Cc2cc(-c3csc(NC(=O)c4ccc(CN5CCN(C)CC5)cc4)n3)ccc2C)cc1 [Example 5, N-(4-(4-methyl-3-(p-tolylethynyl)phenyl)thiazol-2-yl)-4-((4-methylpiperazin-1-yl)methyl)benzamide] | – | – | – | – | 5.3
15 | CC(C)[Si](C#Cc1ccc(-c2csc(NC(=O)c3ccc(CN4CCN(C)CC4)cc3)n2)cc1)(C(C)C)C(C)C [Example 35, 4-((4-methylpiperazin-1-yl)methyl)-N-(4-(4-((triisopropylsilyl)ethynyl)phenyl)thiazol-2-yl)benzamide] | – | – | – | – | 7.3
16 | CN1CCN(C(=O)c2ccc(-c3ccc(C(=O)Nc4nc(-c5cccc(C#C[Si](C)(C)C(C)(C)C)c5)cs4)o3)cc2)CC1 [Example 27, N-(4-(3-((tert-butyldimethylsilyl)ethynyl)phenyl)thiazol-2-yl)-5-(4-(4-methylpiperazine-1-carbonyl)phenyl)furan-2-carboxamide] | – | – | – | – | 2.3
17 | CN1CCN(C(=O)c2ccc(-c3ccc(C(=O)Nc4nc(-c5cccc(C#Cc6cc(C(F)(F)F)cc(C(F)(F)F)c6)c5)cs4)o3)cc2)CC1 [Example 34, N-(4-(3-((3,5-bis(trifluoromethyl)phenyl)ethynyl)phenyl)thiazol-2-yl)-5-(4-(4-methylpiperazine-1-carbonyl)phenyl)furan-2-carboxamide] | > 100 | 4 | 1.9 | 2 | –
18 | CN1CCN(Cc2ccc(C(=O)Nc3nc(-c4cccc(C#CCO[Si](c5ccccc5)(c5ccccc5)C(C)(C)C)c4)cs3)cc2)CC1 [Example 21, N-(4-(3-(3-((tert-butyldiphenylsilyl)oxy)prop-1-yn-1-yl)phenyl)thiazol-2-yl)-4-((4-methylpiperazin-1-yl)methyl)benzamide] | – | – | – | – | 12
19 | CC(C)[Si](C#Cc1cccc(-c2csc(NC(=O)c3ccc(Cn4cnnn4)cc3)n2)c1)(C(C)C)C(C)C [Example 45] | – | – | – | – | 8
